target: T1, human ENT1 (Homo sapiens, UniProt Q99808); experiment: ENT1 binding assay (competition with Sahenta-DY647 on JAR cells); parameters: JAR cells expressing ENT1 were bought from ATCC; host or cells: JAR cells; conditions: binned IC50
T1 sequence (Q99808 1-456): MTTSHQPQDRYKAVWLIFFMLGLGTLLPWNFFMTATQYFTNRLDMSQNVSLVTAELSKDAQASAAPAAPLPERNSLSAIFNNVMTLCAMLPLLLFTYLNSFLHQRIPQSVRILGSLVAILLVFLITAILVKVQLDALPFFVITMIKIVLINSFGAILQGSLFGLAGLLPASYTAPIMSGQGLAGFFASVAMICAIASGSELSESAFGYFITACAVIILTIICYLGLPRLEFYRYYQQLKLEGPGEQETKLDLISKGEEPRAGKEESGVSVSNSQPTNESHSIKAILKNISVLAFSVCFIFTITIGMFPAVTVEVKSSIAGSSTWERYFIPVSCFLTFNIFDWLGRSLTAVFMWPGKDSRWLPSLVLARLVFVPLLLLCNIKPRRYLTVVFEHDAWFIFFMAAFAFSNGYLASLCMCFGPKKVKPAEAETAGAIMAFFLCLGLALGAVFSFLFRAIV
Procedure: Purpose. […] By measuring the fluorescence at the end of the assay we could assess the binding potency of the compounds of the present invention.
JAR cells were resuspended in the described buffer. Compounds of the present invention and Sahenta-DY647 were diluted 200× in the described buffer.
The total volume of the reaction was 100 μL (50 μL of cells, 25 μL of the compounds of the present invention and 25 μL of Sahenta-DY647) in a 96 well plate, U-bottom (Greiner®, #650-180). The plates were washed 2× by centrifugation (4 min, 400 rcf at 4° C.) in the same buffer.

Q: How did the IC50 turn out when COCCN(CCOC)c1nc(N2CCC(OC)CC2)c2nc(N(CCOC)CCOC)nc(NCc3nccs3)c2n1 [Compound 58, N2,N2,N6,N6-tetrakis(2-methoxyethyl)-8-(4-methoxypiperidin-1-yl)-N4-(thiazol-2-ylmethyl)pyrimido[5,4-d]pyrimidine-2,4,6-triamine] was run?
A: 500 to 1000 nM

Q: COCCN(CCOC)c1nc(N2CCC(OC)CC2)c2nc(N(CCOC)CCOC)nc(NCc3cncs3)c2n1 [Compound 59, N2,N2,N6,N6-tetrakis(2-methoxyethyl)-8-(4-methoxypiperidin-1-yl)-N4-(thiazol-5-ylmethyl)pyrimido[5,4-d]pyrimidine-2,4,6-triamine] was tested. Which IC50 did it give?
A: 100 to 500 nM

Q: COCCN(CCOC)c1nc(N2CCC(OC)CC2)c2nc(N(CCOC)CCOC)nc(NCc3cnco3)c2n1 [Compound 60, N2,N2,N6,N6-tetrakis(2-methoxyethyl)-8-(4-methoxypiperidin-1-yl)-N4-(oxazol-5-ylmethyl)pyrimido[5,4-d]pyrimidine-2,4,6-triamine] was tested. Which IC50 did it give?
A: 500 to 1000 nM

Q: For COCCN(CCOC)c1nc(N2CCC(OC)CC2)c2nc(N(CCOC)CCOC)nc(NCc3ccncc3)c2n1 [Compound 61, N2,N2,N6,N6-tetrakis(2-methoxyethyl)-8-(4-methoxypiperidin-1-yl)-N4-(pyridin-4-ylmethyl)pyrimido[5,4-d]pyrimidine-2,4,6-triamine], which IC50 is on record?
A: 500 to 1000 nM

Q: COCCN(CCOC)c1nc(N2CCC(OC)CC2)c2nc(N(CCOC)CCOC)nc(NCc3cccnc3)c2n1 [Compound 62, N2,N2,N6,N6-tetrakis(2-methoxyethyl)-8-(4-methoxypiperidin-1-yl)-N4-(pyridin-3-ylmethyl)pyrimido[5,4-d]pyrimidine-2,4,6-triamine] was tested. Which IC50 did it give?
A: 500 to 1000 nM

Q: COCCN(CCOC)c1nc(N2CCC(OC)CC2)c2nc(N(CCOC)CCOC)nc(NCCc3cccnc3)c2n1 [Compound 63, N2,N2,N6,N6-tetrakis(2-methoxyethyl)-8-(4-methoxypiperidin-1-yl)-N4-(2-(pyridin-3-yl)ethyl)pyrimido[5,4-d]pyrimidine-2,4,6-triamine] was tested. Which IC50 did it give?
A: 100 to 500 nM

Q: Which IC50 does the source give for COCCN(CCOC)c1nc(N2CCC(OC)CC2)c2nc(N(CCOC)CCOC)nc(NCCc3ccncc3)c2n1 [Compound 64, N2,N2,N6,N6-tetrakis(2-methoxyethyl)-8-(4-methoxypiperidin-1-yl)-N4-(2-(pyridin-4-yl)ethyl)pyrimido[5,4-d]pyrimidine-2,4,6-triamine] here?
A: 100 to 500 nM

Q: COCCN(CCOC)c1nc(N2CCC(OC)CC2)c2nc(N(CCOC)CCOC)nc(NCc3cnn(C)c3)c2n1 [Compound 65, N2,N2,N6,N6-tetrakis(2-methoxyethyl)-8-(4-methoxypiperidin-1-yl)-N4-((1-methyl-1H-pyrazol-4-yl)methyl)pyrimido[5,4-d]pyrimidine-2,4,6-triamine] was tested. Which IC50 did it give?
A: 500 to 1000 nM

Q: Which IC50 does the source give for COCCN(CCOC)c1nc(N2CCC(OC)CC2)c2nc(N(CCOC)CCOC)nc(NCc3cscn3)c2n1 [Compound 66, N2,N2,N6,N6-tetrakis(2-methoxyethyl)-8-(4-methoxypiperidin-1-yl)-N4-(thiazol-4-ylmethyl)pyrimido[5,4-d]pyrimidine-2,4,6-triamine] here?
A: 500 to 1000 nM

Q: For COCCN(CCOC)c1nc(N2CCC(OC)CC2)c2nc(N(CCOC)CCOC)nc(N(C)C)c2n1 [Compound 67, N2,N2,N6,N6-tetrakis(2-methoxyethyl)-8-(4-methoxypiperidin-1-yl)-N4,N4-dimethylpyrimido[5,4-d]pyrimidine-2,4,6-triamine], which IC50 is on record?
A: 500 to 1000 nM

Q: With COCCN(CCOC)c1nc(N2CCC(OC)CC2)c2nc(N(CCOC)CCOC)nc(N3CCOCC3)c2n1 [Compound 69, N2,N2,N6,N6-tetrakis(2-methoxyethyl)-4-(4-methoxypiperidin-1-yl)-8-morpholinopyrimido[5,4-d]pyrimidine-2,6-diamine] as the compound, how does the IC50 read?
A: 500 to 1000 nM

Q: With COCCN(CCOC)c1nc(N2CCNC(=O)C2)c2nc(N(CCOC)CCOC)nc(N3CCC(OC)CC3)c2n1 [Compound 70, 4-(2,6-bis(bis(2-methoxyethyl)amino)-8-(4-methoxypiperidin-1-yl)pyrimido[5,4-d]pyrimidin-4-yl)piperazin-2-one] as the compound, how does the IC50 read?
A: 500 to 1000 nM

Q: How did the IC50 turn out when COCCN(CCOC)c1nc(N2CCC(OC)CC2)c2nc(N(CCOC)CCOC)nc(N3CCC(O)CC3)c2n1 [Compound 71, 1-(2,6-bis(bis(2-methoxyethyl)amino)-8-(4-methoxypiperidin-1-yl)pyrimido[5,4-d]pyrimidin-4-yl)piperidin-4-ol] was run?
A: 100 to 500 nM

Q: Which IC50 does the source give for COCCN(CCOC)c1nc(N2CCC(OC)CC2)c2nc(N(CCOC)CCOC)nc(N(C)Cc3ccccn3)c2n1 [Compound 73, N2,N2,N6,N6-tetrakis(2-methoxyethyl)-8-(4-methoxypiperidin-1-yl)-N4-methyl-N4-(pyridin-2-ylmethyl)pyrimido[5,4-d]pyrimidine-2,4,6-triamine] here?
A: 100 to 500 nM

Q: For COCCN(CCOC)c1nc(N2CCN(C(C)=O)CC2)c2nc(N(CCOC)CCOC)nc(N3CCC(OC)CC3)c2n1 [Compound 74, 1-(4-(2,6-bis(bis(2-methoxyethyl)amino)-8-(4-methoxypiperidin-1-yl)pyrimido[5,4-d]pyrimidin-4-yl)piperazin-1-yl)ethanone], which IC50 is on record?
A: 100 to 500 nM

Q: For COCCN(CCOC)c1nc(N2CCC(C(N)=O)CC2)c2nc(N(CCOC)CCOC)nc(N3CCC(OC)CC3)c2n1 [Compound 75, 1-(2,6-bis(bis(2-methoxyethyl)amino)-8-(4-methoxypiperidin-1-yl)pyrimido[5,4-d]pyrimidin-4-yl)piperidine-4-carboxamide], which IC50 is on record?
A: 100 to 500 nM

Q: COCCN(CCOC)c1nc(N2CCC(OC)CC2)c2nc(N(CCOC)CCOC)nc(N3CCC(COC)CC3)c2n1 [Compound 76, N2,N2,N6,N6-tetrakis(2-methoxyethyl)-4-(4-(methoxymethyl)piperidin-1-yl)-8-(4-methoxypiperidin-1-yl)pyrimido[5,4-d]pyrimidine-2,6-diamine] was tested. Which IC50 did it give?
A: 500 to 1000 nM

Q: How did the IC50 turn out when COCCN(CCOC)c1nc(N2CCS(=O)(=O)CC2)c2nc(N(CCOC)CCOC)nc(N3CCC(OC)CC3)c2n1 [Compound 77, 4-(2,6-bis(bis(2-methoxyethyl)amino)-8-(4-methoxypiperidin-1-yl)pyrimido[5,4-d]pyrimidin-4-yl)thiomorpholine 1,1-dioxide] was run?
A: < 100 nM

Q: COCCN(CCOC)c1nc(N2CCC(S(C)(=O)=O)CC2)c2nc(N(CCOC)CCOC)nc(N3CCC(OC)CC3)c2n1 [Compound 78, N2,N2,N6,N6-tetrakis(2-methoxyethyl)-4-(4-methoxypiperidin-1-yl)-8-(4-(methylsulfonyl)piperidin-1-yl)pyrimido[5,4-d]pyrimidine-2,6-diamine] was tested. Which IC50 did it give?
A: 500 to 1000 nM

Q: With COCCN(CCOC)c1nc(N2CCC(OC)CC2)c2nc(N(CCOC)CCOC)nc(N3CCCOCC3)c2n1 [Compound 79, N2,N2,N6,N6-tetrakis(2-methoxyethyl)-4-(4-methoxypiperidin-1-yl)-8-(1,4-oxazepan-4-yl)pyrimido[5,4-d]pyrimidine-2,6-diamine] as the compound, how does the IC50 read?
A: < 100 nM

Q: For COCCN(CCOC)c1nc(N2CCC(OC)C2)c2nc(N(CCOC)CCOC)nc(N3CCC(OC)CC3)c2n1 (stereo not shown) [Compound 80, N2,N2,N6,N6-tetrakis(2-methoxyethyl)-4-(4-methoxypiperidin-1-yl)-8-(3-methoxypyrrolidin-1-yl)pyrimido[5,4-d]pyrimidine-2,6-diamine], which IC50 is on record?
A: 100 to 500 nM

Q: For COCCN(CCOC)c1nc(N2CCC(OC)CC2)c2nc(N(CCOC)CCOC)nc(N(C)Cc3ccncc3)c2n1 [Compound 82, N2,N2,N6,N6-tetrakis(2-methoxyethyl)-8-(4-methoxypiperidin-1-yl)-N4-methyl-N4-(pyridin-4-ylmethyl)pyrimido[5,4-d]pyrimidine-2,4,6-triamine], which IC50 is on record?
A: 100 to 500 nM

— patent publication US20230146675A1, “PYRIMIDO[5,4-d]PYRIMIDINE DERIVATIVES AS ENT INHIBITORS FOR THE TREATMENT OF CANCERS, AND COMBINATION THEREOF WITH ADENOSINE RECEPTOR ANTAGONISTS” (ITEOS BELGIUM SA, priority 2020, published 2023)
